Among the data in patent US9125904B1, “Biphenyl imidazoles and related compounds useful for treating HCV infections” (ACHILLION PHARMACEUTICALS, INC., priority 2010, dated 2015) are EC50 values, retold here.

In the assay the test system is HCV replicon. Description: HCV replicon replication assay (NPT ELISA). It counts as cell-based. As to conditions: Hepatitis C virus. On the procedure: Compounds claimed herein are tested for the ability to inhibit viral replication of the Hepatitis C replicon in cultured cells in which the HCV replicon construct has been incorporated. The HCV replicon system was described by Bartenschlager, et. al (Science, 285, pp. 110-113 (1999)). The replicon system is predictive of in vivo anti-HCV activity; compounds that are active in humans uniformly evidence activity in the replicon assay.
In this assay HCV replicon containing cells are treated with different concentrations of the test compound to ascertain the ability of the test compound to suppress replication of the HCV replicon. As a positive control, HCV replicon-containing cells are treated with different concentrations of interferon alpha, a known inhibitor of HCV replication. The replicon assay system includes Neomycin Phosphotransferase (NPT) as a component of the replicon itself in order to detect the transcription of replicon gene products in the host cell. Cells in which the HCV replicon is actively replicating have high levels of NPT; the level of NPT is proportional to HCV replication. […] The NPT level of each sample is measured using a captured ELISA.
A protocol for testing compounds for the ability to inhibit viral replication of the Hepatitis C replicon cultured cells in which the replicon construct has been incorporated, follows.
The HCV replicon contains, 5′-3′, the HCV-IRES, the neomycin phosphotransferase (neo) gene, the IRES of encephalomyocarditis virus, which directs translation of HCV sequences NS3 to NS5B, and the 3′-NTR. The sequence of the HCV replicon has been deposited in GenBank (Accession no. AJ242652).
The replicon is transfected into Huh-7 cells using standard methods such as electroporation.
The equipment and materials include, but are not limited to, Huh-7 HCV replicon-containing cells, maintenance media (DMEM (Dulbecco's modified Eagle media) supplemented with 10% FBS, L-glutamine, non-essential amino acids, penicillin (100 units/ml), streptomycin (100 micrograms/ml), and 500 micrograms/ml of Geneticin (G418), screening media (DMEM supplemented with 10% FBS, L-glutamine, non-essential amino acids, penicillin (100 units/ml) and streptomycin (100 micrograms/ml)), 96 well tissue culture plates (flat bottom), 96 well plates (U bottom for drug dilution), Interferon alpha for positive control, fixation reagent (such as methanol: acetone), primary antibody (rabbit anti-NPTII), secondary antibody: Eu-N1 1, and enhancement solution.
HCV replicon-containing cells support high levels of viral RNA replicon replication when their density is suitable. Over-confluency causes decreased viral RNA replication. Therefore, cells must be kept growing in log phase in the presence of 500 micrograms/ml of G418. Generally, cells should be passed twice a week at 1: 4-6 dilution. Cell maintenance is conducted as follows:
HCV replicon-containing cells are examined under a microscope to ensure that cells growing well. Cells are rinsed once with PBS and 2 ml trypsin is added. The cell/trypsin mixture is incubated at 37° C. in a CO2 incubator for 3-5 minutes. After incubation 10 ml of complete media is added to stop the trypsinization reaction. Cells are blown gently, put into a 15 ml tube, and spun at 1200 rpm for 4 minutes. The trypsin/medium solution is removed. Medium (5 ml) is added and the cells are mixed carefully. The cells are counted.
The cells are then seeded onto 96-well plates at a density of 6000-7500 cells/100 microliters/well (6−7.5×10^5 cells/10 ml/plate). The plates are then incubated at 37° C. in a 5% CO2 incubator.
Cells are examined under a microscope approximated 24 hours after seeding and prior to adding drugs. If counting and dilution were performed correctly, cells are 60-70% confluent and nearly all cells should attach and spread evenly in the well.
HCV replicon-containing cells are rinsed with once PBS once; 2 mls of trypsin are then added. Cells are incubated at 37° C. in a 5% CO2 incubator for 3-5 minutes. […]

[1] abbreviates: 72 h, Huh-7 HCV replicon-containing cells, three days, numeric cells, read-out: EC50.
Where [2] appears, read: 72 h, Huh-7 HCV replicon-containing cells, three days, class symbols, read-out: EC50.

Like-named read-outs stand apart in the source and are kept apart here. Bounds are passed on as bounds.

As for `COC(=O)N[C@H](C(=O)N1CCC[C@H]1c1cnc(-c2ccc(-c3ccc(NC(=O)[C@H]4CCCCN4C(=O)[C@H](NC(=O)OC(C)(C)C)c4ccccc4)cc3)cc2)[nH]1)C(C)C` [Compound 39], the EC50 is greater than 1 nM under setting [1] and no more than 10000 nM (Huh-7).
As for `CNC(=O)C[C@H](C(=O)N1CCC[C@@H]1c1ncc(-c2ccc(-c3ccc(-c4cnc([C@@H]5CCCN5C(=O)[C@@H](CC(=O)NC)C(C)C)[nH]4)cc3)cc2)[nH]1)C(C)C` [Compound 40, (S)-3-((R)-2-(5-(4′-(2-((S)-1-((S)-2-isopropyl-4-(methylamino)-4-oxobutanoyl)pyrrolidin-2-yl)-1H-imidazol-5-yl)biphenyl-4-yl)-1H-imidazol-2-yl)pyrrolidine-1-carbonyl)-N,4-dimethylpentanamide], the concentration giving a half-maximal response (EC50) reads like this: under setting [2], less than 5 nM; (Huh-7) no more than 10000 nM.
As to `COC(=O)N[C@H](C(=O)N1CCc2ccc(NC(=O)c3ccc(-c4ccc(-c5cnc([C@@H]6CCCN6C(=O)[C@@H](NC(=O)OC)C(C)C)[nH]5)cc4)cc3)cc21)C(C)C` [Compound 41], under setting [2], the EC50 was less than 5 nM.
On the same count and under the same terms, the same measure for `COC(=O)NC(C(=O)N1CCC[C@H]1Cc1nc(-c2ccc(-c3ccc(-c4cnc([C@@H]5CCCN5C(=O)[C@@H](NC(=O)OC)C(C)C)[nH]4)cc3)cc2)c[nH]1)C(C)C` (some centres unmarked) [Compound 42]: less than 5 nM; for `COC(=O)N[C@H](C(=O)N1CCC[C@H]1c1ncc(-c2ccc(-c3ccc(-c4c[nH]c([C@@H]5C6CC([C@H](O)C6)N5C(=O)[C@@H](NC(=O)OC)C(C)C)n4)cc3)cc2)[nH]1)C(C)C` (some centres unmarked) [Compound 45]: less than 50 nM; for `COC(=O)N[C@H](C(=O)N1CCC[C@H]1c1ncc(-c2ccc(-c3ccc(-c4c[nH]c([C@@H]5C6CC([C@@H](O)[C@H]6O)N5C(=O)[C@@H](NC(=O)OC)C(C)C)n4)cc3)cc2)[nH]1)C(C)C` (some centres unmarked) [Compound 46]: less than 50 nM.
For `COC(=O)N[C@H](C(=O)N1CCC[C@H]1c1nc(-c2ccc(-c3ccc(-c4c[nH]c([C@@H]5C6CCC(CC6)N5C(=O)[C@@H](NC(=O)OC)C(C)C)n4)cc3)cc2)c[nH]1)C(C)C` [Compound 47], under setting [2], the EC50 was less than 5 nM.
On the same count and under the same terms, the same measure for `COC(=O)N[C@H](C(=O)N1CCCC[C@H]1c1nc(-c2ccc(-c3ccc(-c4c[nH]c([C@@H]5CCCN5C(=O)[C@@H](NC(=O)OC)C(C)C)n4)cc3)cc2)c[nH]1)C(C)C` [Compound 48]: less than 5 nM; for `COC(=O)N[C@H](C(=O)N1CCCCC1c1nc(-c2ccc(-c3ccc(-c4c[nH]c(C5C6CCC(C6)N5C(=O)[C@@H](NC(=O)OC)C(C)C)n4)cc3)cc2)c[nH]1)C(C)C` (some centres unmarked) [Compound 49]: less than 5 nM; for `COC(=O)N[C@H](C(=O)N1CCCCC1c1nc(-c2ccc(-c3ccc(-c4c[nH]c(C5CCCCN5C(=O)[C@@H](NC(=O)OC)C(C)C)n4)cc3)cc2)c[nH]1)C(C)C` (some centres unmarked) [Compound 50]: less than 5 nM.
The same measure, in the same setting: the figure for `COC(=O)NC(C(=O)N1C2CCC(CC2)C1c1ncc(-c2ccc(-c3ccc(-c4c[nH]c([C@@H]5C6CCC(CC6)N5C(=O)C(NC(=O)OC)C(C)C)n4)cc3)cc2)[nH]1)C(C)C` (some centres unmarked) [Compound 51] is less than 5 nM.
On the same count and under the same terms, the figure for `COC(=O)N[C@H](C(=O)N1C2CC(CN(C)C2)C1c1nc(-c2ccc(-c3ccc(-c4cnc([C@@H]5CCCN5C(=O)[C@@H](NC(=O)OC)C(C)C)[nH]4)cc3)cc2)c[nH]1)C(C)C` (some centres unmarked) [Compound 52] is less than 50 nM.
In the case of `COC(=O)N[C@H](C(=O)N1C2CCC(C2)[C@H]1c1ncc(-c2ccc(Br)cc2)[nH]1)C(C)C` (stereo partly drawn) [Compound 54, methyl (2S)-1-((3S)-3-(5-(4-bromophenyl)-1H-imidazol-2-yl)-2-azabicyclo[2.2.1]heptan-2-yl)-3-methyl-1-oxobutan-2-ylcarbamate], under setting [1], the half-maximal effective concentration (EC50) was less than 100 nM.
As to `COC(=O)N[C@H]1CC[C@H]2CC[C@@H](c3ncc(-c4ccc(-c5ccc(-c6cnc([C@@H]7CCCN7C(=O)[C@@H](NC(=O)OC)C(C)C)[nH]6)cc5)cc4)[nH]3)N2C1=O` [Compound 55], the EC50 under setting [2] is less than 50 nM.
Same read-out and setting: the same measure for `COC(=O)N[C@H](C(=O)N1C2CCC(C2)C1c1ncc(-c2ccc(-c3ccc(-c4cnc(C5C6CCC(C6)N5C(=O)[C@@H](NC(=O)OC)C(C)C)[nH]4)cc3)cc2)[nH]1)C(C)C` (stereo partly drawn) [Compound 56, dimethyl (2S,2′S)-1,1′-(3,3′-(5,5′-(biphenyl-4,4′-diyl)bis(1H-imidazole-5,2-diyl))bis(2-azabicyclo[2.2.1]heptane-3,2-diyl))bis(3-methyl-1-oxobutane-2,1-diyl)dicarbamate]: less than 5 nM; for `COC(=O)N[C@H](C(=O)N1C2CCC(C2)C1c1ncc(-c2ccc(-c3ccc(-c4cnc([C@@H]5CCCN5C(=O)[C@@H](NC(=O)OC)C(C)C)[nH]4)cc3)cc2)[nH]1)C(C)C` (some centres unmarked) [Compound 57]: less than 5 nM.
Same read-out and setting: the same measure for `COC(=O)N[C@H](C(=O)N1CCCCCC1c1nc(-c2ccc(-c3ccc(-c4c[nH]c(C5CCCN5C(=O)[C@@H](NC(=O)OC)C(C)C)n4)cc3)cc2)c[nH]1)C(C)C` (some centres unmarked) [Compound 59]: less than 5 nM.
Still for that read-out and setting: the figure for `COC(=O)NC(C(=O)C1C(c2nc(-c3ccc(-c4ccc(-c5cnc([C@@H]6CCCN6C(=O)[C@@H](NC(=O)OC)C(C)C)[nH]5)cc4)cc3)c[nH]2)C2CC1[C@H](F)[C@@H]2F)C(C)C` (some centres unmarked) [Compound 60] is less than 5 nM; for `COC(=O)N[C@H](C(=O)N1CCCCCC1c1nc(-c2ccc(-c3ccc(-c4c[nH]c(C5CCCCCN5C(=O)[C@@H](NC(=O)OC)C(C)C)n4)cc3)cc2)c[nH]1)C(C)C` (stereo partly drawn) [Compound 61, dimethyl (2S,2′S)-1,1′-(2,2′-(4,4′-(biphenyl-4,4′-diyl)bis(1H-imidazole-4,2-diyl))bis(azepane-2,1-diyl))bis(3-methyl-1-oxobutane-2,1-diyl)dicarbamate] it is less than 50 nM; for `COC(=O)NC(C(=O)N1C2CCC(C2)C1c1nc(-c2ccc(-c3ccc(-c4c[nH]c(C5C=CCN5C(=O)[C@@H](NC(=O)OC)C(C)C)n4)cc3)cc2)c[nH]1)C(C)C` (some centres unmarked) [Compound 62] it is less than 5 nM.
Regarding `COC(=O)N[C@H](C(=O)N1CCCCCC1c1nc(-c2ccc(-c3ccc(-c4c[nH]c(C5C6CCC(C6)N5C(=O)[C@@H](NC(=O)OC)C(C)C)n4)cc3)cc2)c[nH]1)C(C)C` (some centres unmarked) [Compound 63], under setting [2], the EC50 was less than 5 nM.
Regarding `COC(=O)NC(C(=O)N1C2CCC(C2)C1c1nc2ccc(-c3ccc4[nH]c(C5C6CCC(C6)N5C(=O)[C@@H](NC(=O)OC)C(C)C)nc4c3)cc2[nH]1)C(C)C` (some centres unmarked) [Compound 64], the EC50 under setting [1] was 619 nM.
On to `COC(=O)N[C@H](C(=O)N1CCC[C@H]1C1=NC(c2ccc(-c3ccc4[nH]c([C@@H]5C6CCC(C6)N5C(=O)[C@@H](NC(=O)OC)C(C)C)nc4c3)cc2)CN1)C(C)C` (some centres unmarked) [Compound 65], for which the EC50 under setting [2] is less than 5 nM.
On the same count and under the same terms, the figure for `COC(=O)N[C@H](C(=O)N1CCC[C@H]1c1ncc(-c2ccc(-c3ccc4oc(-c5cnc([C@@H]6C7CCC(C7)N6C(=O)[C@@H](NC(=O)OC)C(C)C)[nH]5)cc4c3)cc2)[nH]1)C(C)C` (some centres unmarked) [Compound 70] is less than 5 nM; for `COC(=O)N[C@H](C(=O)N1CCC[C@H]1c1ncc(-c2cc3cc(-c4ccc(-c5cnc([C@@H]6C7CCC(C7)N6C(=O)[C@@H](NC(=O)OC)C(C)C)[nH]5)cc4)ccc3o2)[nH]1)C(C)C` (some centres unmarked) [Compound 71] it is less than 5 nM; for `COC(=O)N[C@H](C(=O)N1C2CCC(C2)[C@H]1c1nc(-c2ccc(/C=C/c3ccc(-c4cnc([C@@H]5C6CCC(C6)N5C(=O)[C@@H](NC(=O)OC)C(C)C)[nH]4)cc3)cc2)c[nH]1)C(C)C` (some centres unmarked) [Compound 72] it is less than 5 nM.
Same read-out and setting: the figure for `COC(=O)N[C@H](C(=O)N1C2CC(F)C(C2)C1c1ncc(-c2ccc(-c3ccc(-c4cnc([C@@H]5CCCN5C(=O)[C@@H](NC(=O)OC)C(C)C)[nH]4)cc3)cc2)[nH]1)C(C)C` (some centres unmarked) [Compound 73] is less than 5 nM.
